Measurements published in patent US20110313004A1, “DEUTERATED PYRIDINONES” (CONCERT PHARMACEUTICALS, INC., priority 2008, published 2011).

Test: Storage stability of the isolated compound at about −20° C.
Format: physicochemical
Details: storage for approximately 2 weeks at about −20° C.
Source text: Compound 139 was synthesized in the same manner as Compound 151 with the exception that 4-fluoro-2,3,5,6-d4-aniline (98% atom % D, CDN Isotopes) was used in place of D p-toluidine-d9 in step 1. ^1H NMR (CDCl3): δ 7.44 (dd, J=2.5, 9.6, 1H), 7.31 (d, J=2.5, 1H), 6.67 (d, J=9.3, 1H). MS (M+H): 226.1.
Compound 161 was synthesized in the same manner as Compound 101 (Example 1, Scheme 6, steps 1-3), except that 4-chloro-2,3,5,6-d4-aniline (98% atom % D, CDN Isotopes) was used in place of aniline in step 1. MS (M+H): 242.1.
A solution of (ethyl carbonic) 1-(4-(methoxy-d3)phenyl-d4)-6-oxo-1,6-dihydropyridine-3-carboxylic anhydride 27 (464 mg, approximately. 1.43 mmol) in THF (14.8 mL) was cooled to 10° C. and NaBD4 (98 atom % D, Cambridge Isotopes Laboratories) (295 mg, 7.01 mmol) was added. To the resulting slurry was added MeOD (1.42 mL) via syringe pump at a rate of 0.015 mL/min. Upon completion, the reaction was diluted with MeOD and concentrated nearly to dryness on a rotary evaporator. This process was repeated twice. The resulting solid was suspended in CH2Cl2, silica gel was added, the slurry concentrated to dryness in vacuo, and the resulting solid was added to the top of a silica gel column. Purification via column chromatography on an ISCO instrument (0 to 10% MeOH in CH2Cl2) provided impure final product. A further purification by ISCO (50 to 100% EtOAc in hexanes) followed by a preparatory HPLC purification afforded 116 mg of the final product 156 in approximately 85% purity. ^1H NMR (CDCl3): δ 7.43 (dd, J=2.7, 9.5, 1H), 7.31 (dd, J=0.6, 2.5, 1H), 6.66 (dd, J=0.6, 9.5, 1H). MS (M+H): 241.1.

Row | Compound | condition of compound after storage
1 | [2H]c1c([2H])c(-n2cc(C([2H])([2H])O)ccc2=O)c([2H])c([2H])c1F [Compound 139, 1-(4-Fluorophenyl-d4)-5-(hydroxy(methyl-d2))pyridin-2(1H)-one] | decomposed
2 | [2H]c1c([2H])c(-n2cc(C([2H])([2H])O)ccc2=O)c([2H])c([2H])c1OC([2H])([2H])[2H] [Compound 156, 5-(Hydroxyl(methyl-d2))-1-(4-(methoxy-d3)phenyl-d4)pyridin-2(1H)-one] | decomposed
3 | [2H]c1c([2H])c(-n2cc(C([2H])([2H])O)ccc2=O)c([2H])c([2H])c1Cl [Compound 161, 1-(4-Chlorophenyl-d4)-5-(hydroxy(methyl-d2))-pyridin-2(1H)-one] | decomposed
